Experiments:
[1] = test system: Puccinia recondita f. Sp. Tritici; assay: Puccinia recondita f. sp. tritici / wheat / leaf disc curative (brown rust); assay type: in vivo; conditions: foliar, 24 h, 200 ppm in the applied formulation, wheat leaf segments cv. Kanzler, curative (applied 1 day after inoculation), compared to untreated, read-out: disease control
How it was run: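 Wheat cv. Kanzler leaf segments on agar were inoculated with fungal spore suspension, held dark at 19° C and 75% RH, then sprayed 1 day later with formulated compound diluted in water. Incubation continued at 19° C, 75% RH, 12 h light/12 h dark; percent disease control versus untreated was scored 6 to 8 days after application.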

[2] = test system: Glomerella lacenarium (Colletotrichum lagenarium); assay: Glomerella lagenarium liquid culture / cucumber / preventative (anthracnose); assay type: cell-based; conditions: Colletotrichum orbiculare; 20 ppm in the applied formulation; liquid culture (PDB), growth inhibition measured photometrically 3 to 4 days after application; compared to untreated; read-out: disease control
How it was run: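 Conidia from cryogenic storage were mixed into potato dextrose broth. This was added to compound diluted from DMSO into 0.025% Tween20, tested at 20 ppm. Plates were incubated in the dark at 24 °C and 96% relative humidity, and growth was read photometrically after 2–7 days as % activity versus untreated check.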

Phakopsora pachyrhizi = Phakopsora pachyrhizi / soybean / leaf disc preventative (Asian soybean rust); assay type: in vivo; conditions: foliar, 200 ppm in the applied formulation, soybean leaf disks, compared to untreated, read-out: disease control
Experimental: Leaf disks or leaf segments of various plant species are cut from plants grown in a greenhouse. The cut leaf disks or segments are placed in multiwell plates (24-well format) onto water agar. The leaf disks are sprayed with a test solution before (preventative) or after (curative) inoculation. Compounds to be tested are prepared as DMSO solutions (max. 10 mg/ml) which are diluted to the appropriate concentration with 0.025% Tween20 just before spraying. The inoculated leaf disks or segments are incubated under defined conditions (temperature, relative humidity, light, etc.) according to the respective test system. A single evaluation of disease level is carried out 3 to 14 days after inoculation, depending on the pathosystem. Percent disease control relative to the untreated check leaf disks or segments is then calculated.
Soybean leaf disks are placed on water agar in multiwell plates (24-well format) and sprayed with the formulated test compound diluted in water. One day after application leaf discs are inoculated by spraying a spore suspension on the lower leaf surface. After an incubation period in a climate cabinet of 24-36 hours in darkness at 20° C. and 75% rh leaf disc are kept at 20° C. with 12 h light/day and 75% rh. The activity of a compound is assessed as percent disease control compared to untreated when an appropriate level of disease damage appears in untreated check leaf disks (12 to 14 days after application).
The following compounds at 200 ppm in the applied formulation give at least 80% disease control in this test when compared to untreated control leaf disks under the same conditions, which show extensive disease development.

[3] = test system: Puccinia recondita f. Sp. Tritici; assay: Puccinia recondita f. sp. tritici / wheat / leaf disc preventative (brown rust); assay type: in vivo; conditions: foliar, 200 ppm in the applied formulation, wheat leaf segments cv. Kanzler, preventative (inoculated 1 day after application), compared to untreated, read-out: disease control
How it was run: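 Compound, diluted from DMSO solution into aqueous 0.025% Tween20, is sprayed at 200 ppm onto cut wheat segments (cv. Kanzler) placed on water agar. One day on, segments receive a fungal spore suspension and are incubated at 19° C., 75% rh, 12 h photoperiod, with % control vs untreated scored at 7–9 days.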

COCC(=O)NC(C)(C)c1ccc(-c2noc(C(F)(F)F)n2)cc1 [Compound 1.95, 2-methoxy-N-[1-methyl-1-[4-[5-(trifluoromethyl)-1,2,4-oxadiazol-3-yl]phenyl]ethyl]acetamide]
≥ 80%: pest or weed control at 200 ppm [1] | inhibition of growth at 20 ppm [2] | pest or weed control at 200 ppm (Phakopsora pachyrhizi) | pest or weed control at 200 ppm [3]

O=C(CC(F)(F)F)NCc1ccc(-c2noc(C(F)(F)F)n2)cc1F [Compound 1.46, 3,3,3-trifluoro-N-[[2-fluoro-4-[5-(trifluoromethyl)-1,2,4-oxadiazol-3-yl]phenyl]methyl]propanamide]
≥ 80%: pest or weed control at 200 ppm [1] | inhibition of growth at 20 ppm [2] | pest or weed control at 200 ppm (Phakopsora pachyrhizi) | pest or weed control at 200 ppm [3]

CC(C)NC(=O)NCc1ccc(-c2noc(C(F)(F)F)n2)cc1 [Compound 3.9, 1-isopropyl-3-[[4-[5-(trifluoromethyl)-1,2,4-oxadiazol-3-yl]phenyl]methyl]urea]
≥ 80%: pest or weed control at 200 ppm [1] | inhibition of growth at 20 ppm [2] | pest or weed control at 200 ppm (Phakopsora pachyrhizi) | pest or weed control at 200 ppm [3]

O=C(NCc1ccc(-c2noc(C(F)(F)F)n2)cc1)OCCCCCl [Compound 2.13, 4-chlorobutyl N-[[4-[5-(trifluoromethyl)-1,2,4-oxadiazol-3-yl]phenyl]methyl]carbamate]
≥ 80%: pest or weed control at 200 ppm [1] | inhibition of growth at 20 ppm [2] | pest or weed control at 200 ppm (Phakopsora pachyrhizi) | pest or weed control at 200 ppm [3]

COCC(=O)NCc1ccc(-c2noc(C(F)(F)F)n2)c(F)c1F [Compound 1.56, N-[[2,3-difluoro-4-[5-(trifluoromethyl)-1,2,4-oxadiazol-3-yl]phenyl]methyl]-2-methoxy-acetamide]
≥ 80%: pest or weed control at 200 ppm [1] | inhibition of growth at 20 ppm [2] | pest or weed control at 200 ppm (Phakopsora pachyrhizi) | pest or weed control at 200 ppm [3]

C=CCNC(=O)NCc1ccc(-c2noc(C(F)(F)F)n2)cc1 [Compound 3.16, 1-allyl-3-[[4-[5-(trifluoromethyl)-1,2,4-oxadiazol-3-yl]phenyl]methyl]urea]
≥ 80%: pest or weed control at 200 ppm [1] | inhibition of growth at 20 ppm [2] | pest or weed control at 200 ppm (Phakopsora pachyrhizi) | pest or weed control at 200 ppm [3]

CC(=O)NCCc1ccc(-c2noc(C(F)(F)F)n2)cc1 [Compound 1.92, N-[2-[4-[5-(trifluoromethyl)-1,2,4-oxadiazol-3-yl]phenyl]ethyl]acetamide]
≥ 80%: pest or weed control at 200 ppm [1] | inhibition of growth at 20 ppm [2] | pest or weed control at 200 ppm (Phakopsora pachyrhizi) | pest or weed control at 200 ppm [3]

C=CCCC(=O)NCc1ccc(-c2noc(C(F)(F)F)n2)cc1 [Compound 1.7, N-[[4-[5-(trifluoromethyl)-1,2,4-oxadiazol-3-yl]phenyl]methyl]pent-4-enamide]
≥ 80%: pest or weed control at 200 ppm [1] | inhibition of growth at 20 ppm [2] | pest or weed control at 200 ppm (Phakopsora pachyrhizi) | pest or weed control at 200 ppm [3]

CCC(C)C(=O)NCc1ccc(-c2noc(C(F)(F)F)n2)cc1 (centres unmarked) [Compound 1.17, 2-methyl-N-[[4-[5-(trifluoromethyl)-1,2,4-oxadiazol-3-yl]phenyl]methyl]butanamide]
≥ 80%: pest or weed control at 200 ppm [1] | inhibition of growth at 20 ppm [2] | pest or weed control at 200 ppm (Phakopsora pachyrhizi) | pest or weed control at 200 ppm [3]

O=C(NCc1ccc(-c2noc(C(F)(F)F)n2)cc1)OCCCl [Compound 2.17, 2-chloroethyl N-[[4-[5-(trifluoromethyl)-1,2,4-oxadiazol-3-yl]phenyl]methyl]carbamate]
≥ 80%: pest or weed control at 200 ppm [1] | inhibition of growth at 20 ppm [2] | pest or weed control at 200 ppm (Phakopsora pachyrhizi) | pest or weed control at 200 ppm [3]

CCONC(=O)NCc1ccc(-c2noc(C(F)(F)F)n2)cc1 [Compound 3.14, 1-ethoxy-3-[[4-[5-(trifluoromethyl)-1,2,4-oxadiazol-3-yl]phenyl]methyl]urea]
≥ 80%: pest or weed control at 200 ppm [1] | inhibition of growth at 20 ppm [2] | pest or weed control at 200 ppm (Phakopsora pachyrhizi) | pest or weed control at 200 ppm [3]

CONC(=O)NCc1ccc(-c2noc(C(F)(F)F)n2)cc1 [Compound 3.17, 1-methoxy-3-[[4-[5-(trifluoromethyl)-1,2,4-oxadiazol-3-yl]phenyl]methyl]urea]
≥ 80%: pest or weed control at 200 ppm [1] | inhibition of growth at 20 ppm [2] | pest or weed control at 200 ppm (Phakopsora pachyrhizi) | pest or weed control at 200 ppm [3]

CC(C)C(=O)NCc1ccc(-c2noc(C(F)(F)F)n2)c(F)c1F [Compound 1.49, N-[[2,3-difluoro-4-[5-(trifluoromethyl)-1,2,4-oxadiazol-3-yl]phenyl]methyl]-2-methyl-propanamide]
≥ 80%: pest or weed control at 200 ppm [1] | inhibition of growth at 20 ppm [2] | pest or weed control at 200 ppm (Phakopsora pachyrhizi) | pest or weed control at 200 ppm [3]

CC(=O)CC(C)C(=O)NCc1ccc(-c2noc(C(F)(F)F)n2)cc1 (centres unmarked) [Compound 1.9, 2-methyl-4-oxo-N-[[4-[5-(trifluoromethyl)-1,2,4-oxadiazol-3-yl]phenyl]methyl]pentanamide]
≥ 80%: pest or weed control at 200 ppm [1] | inhibition of growth at 20 ppm [2] | pest or weed control at 200 ppm (Phakopsora pachyrhizi) | pest or weed control at 200 ppm [3]

CCC(C)C(=O)NCCc1ccc(-c2noc(C(F)(F)F)n2)cc1 (centres unmarked) [Compound 1.87, 2-methyl-N-[2-[4-[5-(trifluoromethyl)-1,2,4-oxadiazol-3-yl]phenyl]ethyl]butanamide]
≥ 80%: pest or weed control at 200 ppm [1] | inhibition of growth at 20 ppm [2] | pest or weed control at 200 ppm (Phakopsora pachyrhizi) | pest or weed control at 200 ppm [3]

CCCC(=O)NCc1ccc(-c2noc(C(F)(F)F)n2)c(F)c1 [Compound 1.78, N-[[3-fluoro-4-[5-(trifluoromethyl)-1,2,4-oxadiazol-3-yl]phenyl]methyl]butanamide]
≥ 80%: pest or weed control at 200 ppm [1] | inhibition of growth at 20 ppm [2] | pest or weed control at 200 ppm (Phakopsora pachyrhizi) | pest or weed control at 200 ppm [3]

CCCCCC(=O)NCc1ccc(-c2noc(C(F)(F)F)n2)cc1 [Compound 1.8, N-[[4-[5-(trifluoromethyl)-1,2,4-oxadiazol-3-yl]phenyl]methyl]hexanamide]
≥ 80%: pest or weed control at 200 ppm [1] | inhibition of growth at 20 ppm [2] | pest or weed control at 200 ppm (Phakopsora pachyrhizi) | pest or weed control at 200 ppm [3]

CC(C)COC(=O)NCc1ccc(-c2noc(C(F)(F)F)n2)cc1 [Compound 2.8, isobutyl N-[[4-[5-(trifluoromethyl)-1,2,4-oxadiazol-3-yl]phenyl]methyl]carbamate]
≥ 80%: pest or weed control at 200 ppm [1] | inhibition of growth at 20 ppm [2] | pest or weed control at 200 ppm (Phakopsora pachyrhizi) | pest or weed control at 200 ppm [3]

CCNC(=O)NCc1ccc(-c2noc(C(F)(F)F)n2)cc1 [Compound 3.10, 1-ethyl-3-[[4-[5-(trifluoromethyl)-1,2,4-oxadiazol-3-yl]phenyl]methyl]urea]
≥ 80%: pest or weed control at 200 ppm [1] | inhibition of growth at 20 ppm [2] | pest or weed control at 200 ppm (Phakopsora pachyrhizi) | pest or weed control at 200 ppm [3]

CC(C)(C)CC(=O)NCc1ccc(-c2noc(C(F)(F)F)n2)cc1 [Compound 1.15, 3,3-dimethyl-N-[[4-[5-(trifluoromethyl)-1,2,4-oxadiazol-3-yl]phenyl]methyl]butanamide]
≥ 80%: pest or weed control at 200 ppm [1] | inhibition of growth at 20 ppm [2] | pest or weed control at 200 ppm (Phakopsora pachyrhizi) | pest or weed control at 200 ppm [3]

CC(C)OC(=O)NCc1ccc(-c2noc(C(F)(F)F)n2)cc1 [Compound 2.14, isopropyl N-[[4-[5-(trifluoromethyl)-1,2,4-oxadiazol-3-yl]phenyl]methyl]carbamate]
≥ 80%: pest or weed control at 200 ppm [1] | inhibition of growth at 20 ppm [2] | pest or weed control at 200 ppm (Phakopsora pachyrhizi) | pest or weed control at 200 ppm [3]

CCCC(=O)NCCc1ccc(-c2noc(C(F)(F)F)n2)cc1 [Compound 1.84, N-[2-[4-[5-(trifluoromethyl)-1,2,4-oxadiazol-3-yl]phenyl]ethyl]butanamide]
≥ 80%: pest or weed control at 200 ppm [1] | inhibition of growth at 20 ppm [2] | pest or weed control at 200 ppm (Phakopsora pachyrhizi) | pest or weed control at 200 ppm [3]

N#CCC(=O)NCCc1ccc(-c2noc(C(F)(F)F)n2)cc1 [Compound 1.90, 2-cyano-N-[2-[4-[5-(trifluoromethyl)-1,2,4-oxadiazol-3-yl]phenyl]ethyl]acetamide]
≥ 80%: pest or weed control at 200 ppm [1] | inhibition of growth at 20 ppm [2] | pest or weed control at 200 ppm (Phakopsora pachyrhizi) | pest or weed control at 200 ppm [3]
